What was measured:
human GPR139 receptor [1] = target: T1, human GPR139 receptor (Homo sapiens, UniProt Q6DWJ6); experiment: GPR139 Competition Binding (membrane-based, tritium-labeled ligand); conditions: T-REx-CHO membranes with human GPR139; 6.5 nM tritium-labeled ligand; 11-point curve, 30 μM maximum concentration; read-out: GPR139 Binding Affinity (pKi) (converted)
T1 construct: expressed in transfected cells; host or cells: T-REx-CHO (Thermo Fisher Scientific), doxycycline-induced
T1 sequence (Q6DWJ6 1-353): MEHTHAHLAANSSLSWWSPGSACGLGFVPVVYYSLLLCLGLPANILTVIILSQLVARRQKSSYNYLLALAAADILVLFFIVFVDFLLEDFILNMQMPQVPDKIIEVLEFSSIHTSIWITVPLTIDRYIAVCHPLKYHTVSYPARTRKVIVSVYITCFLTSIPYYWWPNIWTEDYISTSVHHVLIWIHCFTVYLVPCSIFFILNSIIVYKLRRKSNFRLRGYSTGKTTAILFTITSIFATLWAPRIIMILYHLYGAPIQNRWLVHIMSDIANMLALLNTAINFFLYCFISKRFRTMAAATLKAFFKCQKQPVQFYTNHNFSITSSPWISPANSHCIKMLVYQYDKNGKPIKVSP
Procedure, shortened: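 Membranes came from doxycycline-induced T-REx-CHO cells expressing human GPR139. They were incubated 20 min at room temperature with 6.5 nM tritiated ligand and compound (11 points, top 30 μM) in HEPES pH 7.3 buffer with MgCl2/CaCl2. Filter-bound counts gave Ki by four-parameter fit, reported as pKi.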

human GPR139 receptor [2] = target: T1, human GPR139 receptor; experiment: Measurement of GPR139 Activation Via Calcium Signaling (FLIPR, T-REx-CHO cells); assay type: cell-based; conditions: T-REx-CHO cells stably expressing human GPR139, 11-point dose response, 10 μM maximum concentration, read-out: GPR139 Potency (pEC50) (converted)
Procedure, shortened: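 Calcium flux read by FLIPR for 1 min after adding compounds (11 concentrations, maximum 10 μM) to doxycycline-induced (2 μg/mL, 17 h) T-REx-CHO cells expressing human GPR139. Cells dye-loaded 40 min at 37 °C in HBSS, 1 mM HEPES pH 7.4 with probenecid; activation reported as pEC50 from four-parameter logistic fit.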

Ki (human GPR139 receptor [1]) | EC50 (human GPR139 receptor [2]) | SMILES
162 nM | 37.2 nM | Cc1nn(C)c2cnn(CC(=O)N[C@@H](C)c3ccc(OC(F)(F)F)cc3)c(=O)c12 [Example 47, (S)-2-(1,3-dimethyl-4-oxo-1,4-dihydro-5H-pyrazolo[3,4-d]pyridazin-5-yl)-N-(1-(4-(trifluoromethoxy)phenyl)ethyl)acetamide]
30200 nM | 295 nM | Cc1nn(C2CC2)c2cnn(CC(=O)N[C@H](C)c3ccc(C(F)(F)F)cc3)c(=O)c12 [Example 160, (R)-2-(1-cyclopropyl-3-methyl-4-oxo-1,4-dihydro-5H-pyrazolo[3,4-d]pyridazin-5-yl)-N-(1-(4-(trifluoromethyl)phenyl)ethyl)acetamide]
11 nM | 200 nM | Cc1ccc([C@H](C)NC(=O)Cn2nc(C)c3cnn(C(C)(C)C)c3c2=O)c(F)c1 [Example 16, (S)-2-(1-(tert-butyl)-4-methyl-7-oxo-1,7-dihydro-6H-pyrazolo[3,4-d]pyridazin-6-yl)-N-(1-(2-fluoro-4-methylphenyl)ethyl)acetamide]
0.759 nM | 178 nM | Cc1cc(C)c([C@H](C)NC(=O)Cn2nc(C)c3c(C)nn(C4CC4)c3c2=O)c(C)c1 [Example 70, (S)-2-(1-cyclopropyl-3,4-dimethyl-7-oxo-1,7-dihydro-6H-pyrazolo[3,4-d]pyridazin-6-yl)-N-(1-mesitylethyl)acetamide]
72.4 nM | 55 nM | Cc1ccc([C@H](C)NC(=O)Cn2ncc3c(c(C4CC4)nn3C)c2=O)cc1 [Example 38, (S)-2-(3-cyclopropyl-1-methyl-4-oxo-1,4-dihydro-5H-pyrazolo[3,4-d]pyridazin-5-yl)-N-(1-(p-tolyl)ethyl)acetamide]
355 nM | 170 nM | COc1ccc([C@H](C)NC(=O)Cn2ncc3c(c(C4CC4)nn3C(C)C)c2=O)cc1 [Example 18, (S)-2-(3-cyclopropyl-1-isopropyl-4-oxo-1,4-dihydro-5H-pyrazolo[3,4-d]pyridazin-5-yl)-N-(1-(4-methoxyphenyl)ethyl)acetamide]
1740 nM | 89.1 nM | C[C@H](NC(=O)Cn1ncc2ccn(C)c2c1=O)c1ccccc1 [Example 153, (S)-2-(1-methyl-7-oxo-1,7-dihydro-6H-pyrrolo[2,3-d]pyridazin-6-yl)-N-(1-phenylethyl)acetamide]
3800 nM | 257 nM | C[C@H](NC(=O)Cn1ncc2ncn(C)c2c1=O)c1ccc(C(F)(F)F)cc1 [Example 139, (S)-2-(3-methyl-4-oxo-3,4-dihydro-5H-imidazo[4,5-d]pyridazin-5-yl)-N-(1-(4-(trifluoromethyl)phenyl)ethyl)acetamide]
20.9 nM | 102 nM | Cc1ccc([C@H](C)NC(=O)Cn2nc(C)c3cnn(C(C)(C)C)c3c2=O)cc1 [Example 13, (S)-2-(1-(tert-butyl)-4-methyl-7-oxo-1,7-dihydro-6H-pyrazolo[3,4-d]pyridazin-6-yl)-N-(1-(p-tolyl)ethyl)acetamide]
479 nM | 214 nM | Cc1nn(C(C)C)c2c(C)nn(CC(=O)N[C@@H](C)c3ccc(C(F)(F)F)cc3)c(=O)c12 [Example 56, (S)-2-(1-isopropyl-3,7-dimethyl-4-oxo-1,4-dihydro-5H-pyrazolo[3,4-d]pyridazin-5-yl)-N-(1-(4-(trifluoromethyl)phenyl)ethyl)acetamide]
251 nM | 33.1 nM | Cc1nn(CC(=O)N[C@@H](C)c2ccc(C(F)(F)F)cc2)c(=O)c2c1cnn2C [Example 40, (S)-2-(1,4-dimethyl-7-oxo-1,7-dihydro-6H-pyrazolo[3,4-d]pyridazin-6-yl)-N-(1-(4-(trifluoromethyl)phenyl)ethyl)acetamide]
47.9 nM | 123 nM | C[C@H](NC(=O)Cn1ncc2c(c(C3CC3)nn2C)c1=O)c1ccc(OC(F)(F)F)cc1 [Example 125, (S)-2-(3-cyclopropyl-1-methyl-4-oxo-1,4-dihydro-5H-pyrazolo[3,4-d]pyridazin-5-yl)-N-(1-(4-(trifluoromethoxy)phenyl)ethyl)acetamide]
22.9 nM | 49 nM | Cc1ccc([C@H](C)NC(=O)Cn2ncc3c(c(C(C)C)nn3C)c2=O)c(F)c1 [Example 49, (S)—N-(1-(2-fluoro-4-methylphenyl)ethyl)-2-(3-isopropyl-1-methyl-4-oxo-1,4-dihydro-5H-pyrazolo[3,4-d]pyridazin-5-yl)acetamide]
34.7 nM | 51.3 nM | Cc1cn(C2CC2)c2cnn(CC(=O)N[C@@H](C)c3ccccc3)c(=O)c12 [Example 146, (S)-2-(1-cyclopropyl-3-methyl-4-oxo-1,4-dihydro-5H-pyrrolo[2,3-d]pyridazin-5-yl)-N-(1-phenylethyl)acetamide]
17.4 nM | 182 nM | Cc1nn(CC(=O)N[C@@H](C)c2ccc(C(F)(F)F)cc2)c(=O)c2c(C3CC3)nn(C)c12 [Example 120, (S)-2-(3-cyclopropyl-1,7-dimethyl-4-oxo-1,4-dihydro-5H-pyrazolo[3,4-d]pyridazin-5-yl)-N-(1-(4-(trifluoromethyl)phenyl)ethyl)acetamide]
9.12 nM | 105 nM | Cc1ccc([C@H](C)NC(=O)Cn2nc(C)c3c(C)nn(C4CC4)c3c2=O)cc1 [Example 22, (S)-2-(1-cyclopropyl-3,4-dimethyl-7-oxo-1,7-dihydro-6H-pyrazolo[3,4-d]pyridazin-6-yl)-N-(1-(p-tolyl)ethyl)acetamide]
257 nM | 72.4 nM | Cc1nn(C2CC2)c2cnn(CC(=O)N[C@@H](C)c3cccc(F)c3F)c(=O)c12 [Example 30, (S)-2-(1-cyclopropyl-3-methyl-4-oxo-1,4-dihydro-5H-pyrazolo[3,4-d]pyridazin-5-yl)-N-(1-(2,3-difluorophenyl)ethyl)acetamide]
27.5 nM | ≥ 10000 nM | Cc1ccc([C@H](C)NC(=O)Cn2nc(C(C)C)c3cnn(-c4ccccc4)c3c2=O)c(F)c1 [Example 8, (S)—N-(1-(2-fluoro-4-methylphenyl)ethyl)-2-(4-isopropyl-7-oxo-1-phenyl-1,7-dihydro-6H-pyrazolo[3,4-d]pyridazin-6-yl)acetamide]
263 nM | 617 nM | Cc1nn(C)c2c(C)nn(CC(=O)N[C@@H](C)c3ccc(OC(F)(F)F)cc3)c(=O)c12 [Example 112, (S)—N-(1-(4-(trifluoromethoxy)phenyl)ethyl)-2-(1,3,7-trimethyl-4-oxo-1,4-dihydro-5H-pyrazolo[3,4-d]pyridazin-5-yl)acetamide]
30200 nM | 617 nM | Cc1nn(C2CC2)c2cnn(CC(=O)N[C@@H](C)c3ccc(C(F)(F)F)cn3)c(=O)c12 [Example 32]
3.72 nM | 67.6 nM | Cc1ccc([C@H](C)NC(=O)Cn2ncc3c(c(C)cn3C3CC3)c2=O)c(C)c1 [Example 65, (S)-2-(1-cyclopropyl-3-methyl-4-oxo-1,4-dihydro-5H-pyrrolo[2,3-d]pyridazin-5-yl)-N-(1-(2,4-dimethylphenyl)ethyl)acetamide]
105 nM | 8.51 nM | C[C@H](NC(=O)Cn1ncc2ccn(C)c2c1=O)c1ccc(Cl)cc1 [Example 161, (S)—N-(1-(4-chlorophenyl)ethyl)-2-(1-methyl-7-oxo-1,7-dihydro-6H-pyrrolo[2,3-d]pyridazin-6-yl)acetamide]
100 nM | 57.5 nM | Cc1ccc([C@H](C)NC(=O)Cn2ncc3c(c(C)nn3C(C)C)c2=O)c(F)c1 [Example 92, (S)—N-(1-(2-fluoro-4-methylphenyl)ethyl)-2-(1-isopropyl-3-methyl-4-oxo-1,4-dihydro-5H-pyrazolo[3,4-d]pyridazin-5-yl)acetamide]
37.2 nM | 617 nM | Cc1nn(CC(=O)N[C@@H](C)c2ccc(C(F)(F)F)cc2)c(=O)c2c1cnn2C(C)(C)C [Example 14, (S)-2-(1-(tert-butyl)-4-methyl-7-oxo-1,7-dihydro-6H-pyrazolo[3,4-d]pyridazin-6-yl)-N-(1-(4-(trifluoromethyl)phenyl)ethyl)acetamide]
490 nM | 21.4 nM | Cc1nn(CC(=O)N[C@@H](C)c2cccc(F)c2)c(=O)c2c1c(C)nn2C [Example 154, (S)—N-(1-(3-fluorophenyl)ethyl)-2-(1,3,4-trimethyl-7-oxo-1,7-dihydro-6H-pyrazolo[3,4-d]pyridazin-6-yl)acetamide]
2340 nM | 617 nM | Cc1nn(CC(=O)N[C@@H](C)c2ccc(C(F)(F)F)cc2)c(=O)c2cnn(C(C)C)c12 [Example 75, (S)-2-(1-isopropyl-7-methyl-4-oxo-1,4-dihydro-5H-pyrazolo[3,4-d]pyridazin-5-yl)-N-(1-(4-(trifluoromethyl)phenyl)ethyl)acetamide]
30200 nM | 214 nM | Cc1nn(C)c2c(=O)n(CC(=O)N[C@@H](C)c3ccc(C(F)(F)F)cn3)ncc12 [Example 60, (S)-2-(1,3-dimethyl-7-oxo-1,7-dihydro-6H-pyrazolo[3,4-d]pyridazin-6-yl)-N-(1-(5-(trifluoromethyl)pyridin-2-yl)ethyl)acetamide]
